Source: patent EP4707393A1, “DOUBLE-STRANDED SIRNA, CONJUGATE THEREOF AND USE THEREOF” (CMS Research & Development Pte. Ltd., priority 2023, dated 2024)
pEC50: −log10 of the molar value.

Key:
[1] = system: human LPA gene (Genbank number: NM_005577.4); experiment: Inhibitory activity against LPA mRNA, psiCHECK-2 dual-luciferase reporter vector in Huh7 cells; assay type: cell-based; conditions: Huh7 cells transfected with LPA_psiCHECK-2 plasmid, RNAiMAX transfection
Summary of the method: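 Huh7 cells transfected with psiCHECK-2 carrying human LPA, then treated next day with compounds (3 concentrations) delivered by RNAiMAX. Dual-Glo readout of firefly and Renilla luciferase per well. Percent inhibition calculated from the reporter ratio relative to the RNAiMAX control.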

LPA mRNA = experiment: In vivo efficacy in LPA-HDI mouse model (liver LPA mRNA); design: species or system BALB/c mouse; conditions: 3 mg/kg single subcutaneous injection, Day 14, relative to PBS blank group, 4 mice per group
Method: The knockdown effect of the test double-stranded siRNA conjugate on the target gene LPA upon entry into the mouse is evaluated by rapid high-pressure injection of the physiological saline containing recombinant plasmid pcDNA-LPA carrying the target gene via the tail vein.
pcDNA-LPA plasmid, BALB/c mouse, PBS (phosphate buffer), and conjugates of the present invention.
Six-week-old female BALB/c mice were ordered and acclimated/quarantined for three days upon arrival in the animal room.
On Day 0, the mice were randomly grouped based on body weight data. After grouping, all mice were given a single administration via subcutaneous injection, with a dose volume of 10 mL/kg. Mice in Group 1 received PBS; mice in the other groups received the conjugates (dissolved in PBS).
On Day 13 post-administration, all mice were injected with normal saline containing the pcDNA-LPA plasmid via the tail vein within 5 seconds. The injection volume (mL) = mouse body weight (g) × 8%. The amount of plasmid injected per mouse was 10 µg.
On Day 14 post-administration, all groups of mice were euthanized by CO2 inhalation, and 2 liver samples were collected from each mouse. Liver samples were treated overnight with RNAlater at 4 °C, then RNAlater was removed, and stored at -80 °C for detection of LPA gene expression levels.

hPBMCs = experiment: Immunogenicity test in hPBMCs (IL-6 and TNF-α ELISA of supernatant); assay type: cell-based, human; conditions: donor 1 hPBMCs, 18-20 h
Method: 1 Experimental material • 1.1 Double-stranded siRNA conjugates • 1.2 hPBMCs, purchased from Shanghai Sailybio Medical Co., LTD. • 1.3 Main reagents: Penicillin-Streptomycin (Cat. No.: 15140122), RNase-free water (Cat. No.: AM9938), IL-6 ELISA kit (Cat. No.: 555220), TNF-α ELISA kit (Cat. No.: 555212), LPS (Cat. No.: L2630), etc. 2 Experimental method • 2.1 Compound Preparation: Compounds were prepared as stock solutions with enzyme-free water. Compound weight = powder weight * purity. The concentration of prepared solutions was 900 µg/mL, followed by three-fold serial dilution with enzyme-free water. Each concentration was diluted 10-fold with 1640 medium, resulting in a final enzyme-free water content of 5.0%. • 2.2 Experimental procedure: • 2.2.1 PBMC cells were resuscitated one day in advance and incubated overnight in 1640 complete medium. • 2.2.2 On the day of the experiment, PBMC cells were centrifuged at 300 × g for 8 minutes, and the cell density was adjusted to 1.6 × 10^6 mL with 1640 complete medium. The cells were then added to a 96-well plate, 125 µL per well, and incubated in a 37 °C, 5% CO2 incubator for 15 minutes. • 2.2.3 The diluted test compounds were added to the 96-well plate according to the plate map, all in duplicate, 125 µL for each well; the positive control group and the blank group were added with an equal volume of 1640 complete culture medium containing the same amount of enzyme-free water. • 2.2.4 After gently shaking, the well plates were incubated in an incubator at 37 °C for 18-20 h. The supernatant was collected by centrifugation, and secretions of TNF-α and IL-6 were detected by ELISA. • 2.2.5 Data were analyzed using GraphPad Prism 8 software. 3 Experimental results Table 10. IL-6 and TNF-α levels in the cell supernatant of donor 1 hPBMCs treated with different doses of test compounds

Substance | pEC50 [1] | % Downregulation of LPA mRNA (LPA mRNA) | IL-6 (hPBMCs; 5 µg/mL) | TNF alpha (hPBMCs; 5 µg/mL) | IL-6 (hPBMCs; 15 µg/mL) | TNF alpha (hPBMCs; 15 µg/mL) | IL-6 (hPBMCs; 45 µg/mL) | TNF alpha (hPBMCs; 45 µg/mL)
Z27: siRNA conjugate: sense SEQ ID NO:43, ligand D18 at 3' end of sense strand, antisense SEQ ID NO:66 (sense CAGCCCCTTATTGTTANACGA; antisense TCTCGTATNACAATAAGGGGCTG; ligand D18 at sense 3' end; listed as RNA; modified_base 1: mod_base = OTHER; note = 2'-O-methylcytidine; modified_base 2: mod_base = OTHER; note = 2'-O-methyladenosine; modified_base 3: mod_base = OTHER; note = 2'-O-methylguanosine; modified_base 4..7: mod_base = OTHER; note = 2'-O-me; note = 2'-O-methyluridine; modified_base 4: mod_base = OTHER; note = 2'-fluorocytidine; modified_base 5: mod_base = OTHER; note = 2'-O-methylg) | 9.02 | 92.2% |  |  |  |  |  | 
Z32: siRNA conjugate: sense SEQ ID NO:47, ligand D18 at 3' end of sense strand, antisense SEQ ID NO:71 (sense GCCCCTTATTGTTANACGA; antisense TCGTATNACAATAAGGGGCTGT; ligand D18 at sense 3' end; listed as RNA; modified_base 1: mod_base = OTHER; note = 2'-O-methylguanosine; modified_base 2: mod_base = OTHER; note = 2'-O-methylcytidine; modified_base 3..5: mod_base = OTHER; modified_base 6: mod_base = OTHER; note = 2'-O-met; note = E-type vinylphosphonate-modified 2'-O-methyluridine; note = 2'-fluorocytidine; modified_base 3: mod_base = OTHER; modified_base 4: mo) | 9.68 | 86.4% |  |  |  |  |  | 
Z33: siRNA conjugate: sense SEQ ID NO:47, ligand D18 at 3' end of sense strand, antisense SEQ ID NO:72 (sense GCCCCTTATTGTTANACGA; antisense TCGTATNACAATAAGGGGCTGT; ligand D18 at sense 3' end; listed as RNA; modified_base 1: mod_base = OTHER; note = 2'-O-methylguanosine; modified_base 2: mod_base = OTHER; note = 2'-O-methylcytidine; modified_base 3..5: mod_base = OTHER; modified_base 6: mod_base = OTHER; note = 2'-O-met; note = E-type vinylphosphonate-modified 2'-O-methyluridine; note = 2'-fluorocytidine; modified_base 3: mod_base = OTHER; modified_base 4: mo) |  | 79.2% |  |  |  |  |  | 
Z34: siRNA conjugate: sense SEQ ID NO:48, ligand D18 at 3' end of sense strand, antisense SEQ ID NO:73 (sense CAGCCCCTTATTGTTANACGA; antisense TCGTATNACAATAAGGGGCNGTT; ligand D18 at sense 3' end; listed as RNA; modified_base 1: mod_base = OTHER; note = 2'-O-methylcytidine; modified_base 2: mod_base = OTHER; note = 2'-O-methyladenosine; modified_base 3: mod_base = OTHER; note = 2'-O-methylguanosine; modified_base 4..6: mod_base = OTHER; note = 2'-O-me; note = E-type vinylphosphonate-modified 2'-O-methyluridine; note = 2'-fluorocytidine; modified_base 4: mo) | 8.52 | 78.1% |  |  |  |  |  | 
Z35: siRNA conjugate: sense SEQ ID NO:49, ligand D18 at 3' end of sense strand, antisense SEQ ID NO:74 (sense CAGCCCCTTATTGTTATACGA; antisense TCGTATNACAATAAGGGGCNGTT; ligand D18 at sense 3' end; listed as RNA; modified_base 1: mod_base = OTHER; note = 2'-O-methylcytidine; modified_base 2: mod_base = OTHER; note = 2'-O-methyladenosine; modified_base 3: mod_base = OTHER; note = 2'-O-methylguanosine; modified_base 4..7: mod_base = OTHER; note = 2'-O-me; note = E-type vinylphosphonate-modified 2'-O-methyluridine; note = 2'-deoxycytidine; modified_base 4: mod) | 9.85 | 92.3% |  |  |  |  |  | 
Z40: siRNA conjugate: sense SEQ ID NO:52, ligand D01 at 3' end of sense strand, antisense SEQ ID NO:78 (sense CCTGCCAAGCTTGGTCNTCTA; antisense TCTAGATGNCCAAGCTTGGCNGG; ligand D01 at sense 3' end; listed as RNA; modified_base 1..2: mod_base = OTHER; note = 2'-O-methylcytidine; modified_base 3: mod_base = OTHER; note = 2'-O-methyluridine; modified_base 4: mod_base = OTHER; note = 2'-O-methylguanosine; modified_base 5..6: mod_base = OTHER; note = 2'-O-m; modified_base 1: mod_base = OTHER; note = 2'-fluoroadenosine; modified_base 5: mod_base = OTHER; note = 2'-O-methyl) | 10.15 | 59.0% | 1333.8 pg/mL | 35.9 pg/mL | 1266.6 pg/mL | 32.3 pg/mL | 1343.4 pg/mL | 32.7 pg/mL
Z43: siRNA conjugate: sense SEQ ID NO:49, ligand D01 at 3' end of sense strand, antisense SEQ ID NO:81 (sense CAGCCCCTTATTGTTATACGA; antisense NCGTATNACAATAAGGGGCNGTT; ligand D01 at sense 3' end; listed as RNA; modified_base 1: mod_base = OTHER; note = 2'-O-methylcytidine; modified_base 2: mod_base = OTHER; note = 2'-O-methyladenosine; modified_base 3: mod_base = OTHER; note = 2'-O-methylguanosine; modified_base 4..7: mod_base = OTHER; note = 2'-O-me; note = n is B30; note = 2'-deoxycytidine; modified_base 4: mod_base = OTHER; note = 2'-O-methyluridine; m) | 10.05 | 84.5% | 1270.9 pg/mL | 35.4 pg/mL | 1339.1 pg/mL | 36.9 pg/mL | 1314.4 pg/mL | 32.2 pg/mL
